Measurements published in US20160151369A1, “SUBSTITUTED 3-PHENYLPROPYLAMINE DERIVATIVES FOR THE TREATMENT OF OPHTHALMIC DISEASES AND DISORDERS” (ACUCELA INC., priority 2013, published 2016).
Read-outs that look alike come from different tables or passages of the source.

Assays:
[1] = tested on: retinal isomerase activity (regeneration of 11-cis-retinal); test: Comparative in vivo murine isomerase assay, dose response (compound A vs compound D); set-up: species or system BALB/c mice
Protocol: (§1) All test compounds were stored at room temperature, dessicated.
On the day prior to dose administration compound A and compound D were weighed into new empty glass vials. The compounds were dissolved in di-water at the concentration of 0.833 mg/mL compound A and 0.892 mg/mL compound D, serially diluted into various concentrations, and stored overnight at 4 OC.
56 Male BALB/c mice (Charles River Laboratories) were used for this study. The mice were approximately 8 weeks at the initiation of dosing with an average body weight of 24 grams.
The day prior to dose administration 56 BALB/c mice were placed into a dark room and dark adapted for a minimum of 12 hours prior to dose administration. The mice were maintained in the dark for the duration of the study.
Each animal was removed from its cage and dosed accordingly to the study design in Table 4 (see below). Each animal was administered 0.1 mL of the appropriate compound or vehicle via oral gavage using a 1 mL syringe fitted with a 23 gauge oral gavage needle. Two hours following dose administration, animals were removed from the dark and exposed to 5000 Lux white light for 10 minutes to photobleach their eyes.
Following the completion of the photobleach the animals were returned to the dark for 2 hours to allow for the regeneration of 11-cis-retinal in the eyes. Two hours after photobleaching each animal was euthanized with carbon dioxide followed by cervical dislocation, in the dark under red light. The light control group was euthanized immediately following photobleaching. Immediately following the cervical dislocation both eyes of each animal were removed and transferred into separate tubes, flash frozen in liquid nitrogen and stored in the dark at −80° C. until processing and analysis.
(§2) All sample processing procedures were performed in the dark under red light.
Extracted samples were analyzed using an Agilent 1100 HPLC system according to the procedure outlined in Table 6 (see below)
(§3) HPLC analysis of the eyes measures the peak area units of the 110 cis-Ral-Oxime_syn. Signal.
(§4) Data analysis % inhibition (drug vs. recovery control). % control (drug vs. light control), and One-way ANOVA (followed by Tukey's Multiple Comparison) were performed using peak area units and performed by Prism software. Data are represented as mean and standard deviation.

[2] = tested on: regeneration of 11-cis-retinal (isomerase); test: Single dose time course in the in vivo isomerase assay at 0.3 mg/kg (compound A vs compound D); settings: BALB/c mice, single oral dose 0.3 mg/kg; for inhibition at 0.3 mg/kg: Mus musculus, read-out: Percent Inhibition, 0.3 mg/kg, Avg. % Inhibition
Protocol: as §1
On the day prior to dose administration 3-amino-1-(3-((tetrahydro-2H-pyran-4-yl)methoxy)phenyl)propan-1-ol (compound A) and 3-amino-1-(3-((tetrahydro-2H-pyran- 2-yl)methoxy)phenyl)propan-1-ol (compound D) were weighed into new empty glass vials. The compounds were dissolved in di-water at the concentration of 0.068 mg/mL and stored overnight at 4° C.
52 Male BALB/c mice (Charles River Laboratories) were used for this study. The mice were approximately 8 weeks at the initiation of dosing with an average body weight of 23 grams.
The day prior to dose administration 52 BALB/c mice were placed into a dark room and dark adapted for a minimum of 12 hours prior to dose administration. The mice were maintained in the dark for the duration of the study.
Each animal was removed from its cage and dosed accordingly to the study design in Table 10 (see below). Each animal was administered 0.1 mL of the appropriate test article or vehicle orally using a 1 mL syringe fitted with a 23 gauge oral gavage needle. At 2, 4, 6, 8, 16 or 24 hours following dose administration, animals were removed from the dark and exposed to 5000 Lux white light for 10 minutes to photobleach their eyes. Following the completion of the photobleach the animals were returned to the dark for 2 hours to allow for the regeneration of 11-cis-retinal in the eyes. Two hours after photobleaching each animal was euthanized with carbon dioxide followed by cervical dislocation, in the dark under red light. The light control group was euthanized immediately following photobleaching. Immediately following the cervical dislocation both eyes of each animal were removed and transferred into separate tubes, flash frozen in liquid nitrogen and stored in the dark at −80° C. until processing and analysis.
as §2
Extracted samples were analyzed using an Agilent 1100 HPLC system according to the procedure outlined in Table 12 (see below)
as §3, §4

[3] = tested on: isomerase (recovery of 11-cis-retinal after bleaching); test: In vivo murine isomerase assay (Table 3); settings: Mus musculus, po, mice
Protocol: The capability of compounds described herein to inhibit isomerase was determined by an in vivo murine isomerase assay. […] The recovery of 11-cis-retinal after bleaching can be used to estimate the activity of isomerase in vivo. Delayed recovery, as represented by lower 11-cis-retinal oxime levels, indicates inhibition of isomerization reaction.
Mice were gavaged with the test compound. […] The mice were allowed to recover 2 hours in the dark. The animals were then sacrificed by carbon dioxide inhalation. Retinoids were extracted from the eye and the regeneration of 11-cis-retinal was assessed at various time intervals.
After the mice were sacrificed, the eyes were immediately removed and placed in liquid nitrogen for storage.
The eyes were placed in 500 μL of bis-tris propane buffer (10 mM, pH˜7.3) and 20 μL of 0.8M hydroxile amine (pH˜7.3). The eyes were cut up into small pieces with small iris scissors and then thoroughly homogenized at 30000 rpm with a mechanical homogenizer (Polytron PT 1300 D) in the tube until no visible tissue remained. 500 μL of methanol and 500 μL of heptane were added to each tube. The tubes were attached to a vortexer so that the contents were mixed thoroughly for 15 minutes in room temperature. The organic phase was separated from the aqueous phase by centrifugation for 10 min at 13K rpm, 4° C. 240 μL of the solution from the top layer (organic phase) was removed and transferred to clean 300 μl glass inserts in HPLC vials using glass pipette and the vials were crimped shut tightly.
The samples were analyzed on an Agilent 1100 HPLC system with normal phase column: SILICA (Beckman Coutlier, dp 5 μm, 4.6 mM×250 mM). […] Loading volume for each sample was 100 μl; detection wavelength was 360 nm. The area under the curve for 11-cis retinal oxime was calculated by Agilent Chemstation software and was recorded manually. Data processing was performed using Prizm software.
Positive control mice (no compound administered) were sacrificed fully dark-adapted and the eye retinoids analyzed. Light (bleached) control mice (no compound administered) were sacrificed and retinoids isolated and analyzed immediately after light treatment.
A time course study was performed to determine the isomerase inhibitory activity of the test compound. […] The animals were then “photo-bleached” (5000 Lux white light for 10 minutes) at 2, 4, 8, 16 and 24 hours after dosing, and returned to darkness to allow recovery of the 11-cis-retinal content of the eyes. Mice were sacrificed 2 hours after bleaching, eyes were enucleated, and retinoid content is analyzed by HPLC.
Recovery control mice (vehicle-only treated) were light-treated and left to recover for 2 hours in the dark before sacrifice and analysis. Light control mice (vehicle only treated) were sacrificed for analysis immediately after photo-bleaching.
An in vivo dose response isomerase inhibition study was performed with test compound. […] Recovery and retinoid analysis were performed as described above. Dark control mice were vehicle-only treated, sacrificed fully dark adapted without light treatment, and analyzed. Recovery control mice and light control mice were included in the study as per the initial phase.

How did the “dose at which 11-cis-retinal recovery was inhibited by 50% (called IC50)” value ([1]; BALB/c mice, single oral dose, 2 h, dose response experiment) turn out when NCC[C@@H](O)c1cccc(OCC2CCOCC2)c1 [Example 1] was run?
Its value is 0.17 mg/kg.

What about the inhibition at 0.03 mg/kg ([1]; Mus musculus, po, 2 h, BALB/c mice, single oral dose 0.03 mg/kg, bleach 2 h after dose, drug vs. recovery control, read-out: Percent Inhibition at 2 Hours, Avg. % Inhibition) of the same compound?
Its inhibition at 0.03 mg/kg is -44.1%.

What about the inhibition at 0.1 mg/kg ([1]; Mus musculus, po, 2 h, BALB/c mice, single oral dose 0.1 mg/kg, bleach 2 h after dose, drug vs. recovery control, read-out: Percent Inhibition at 2 Hours, Avg. % Inhibition) of the same compound?
Its inhibition at 0.1 mg/kg is -9.8%.

What about the inhibition at 0.3 mg/kg ([1]; Mus musculus, po, 2 h, BALB/c mice, single oral dose 0.3 mg/kg, bleach 2 h after dose, drug vs. recovery control, read-out: Percent Inhibition at 2 Hours, Avg. % Inhibition) of the same compound?
The inhibition at 0.3 mg/kg was greater than 90%.

What about the inhibition at 0.5 mg/kg ([1]; Mus musculus, po, 2 h, BALB/c mice, single oral dose 0.5 mg/kg, bleach 2 h after dose, drug vs. recovery control, read-out: Percent Inhibition at 2 Hours, Avg. % Inhibition) of the same compound?
Its inhibition at 0.5 mg/kg is roughly 100%.

What about the inhibition at 1 mg/kg ([1]; Mus musculus, po, 2 h, BALB/c mice, single oral dose 1 mg/kg, bleach 2 h after dose, drug vs. recovery control, read-out: Percent Inhibition at 2 Hours, Avg. % Inhibition) of the same compound?
The inhibition at 1 mg/kg was 100%.

And the inhibition at 3 mg/kg ([1]; Mus musculus, po, 2 h, BALB/c mice, single oral dose 3 mg/kg, bleach 2 h after dose, drug vs. recovery control, read-out: Percent Inhibition at 2 Hours, Avg. % Inhibition)?
The inhibition at 3 mg/kg was 105%.

And the activity at 0.03 mg/kg ([1]; Mus musculus, BALB/c mice, single oral dose 0.03 mg/kg, bleach 2 h after dose, read-out: Percent control at 2 Hours (Avg. % Inhibition))?
The activity at 0.03 mg/kg was 144%.

What about the activity at 0.1 mg/kg ([1]; Mus musculus, BALB/c mice, single oral dose 0.1 mg/kg, bleach 2 h after dose, read-out: Percent control at 2 Hours (Avg. % Inhibition)) of the same compound?
Its activity at 0.1 mg/kg is 110%.

What about the activity at 0.3 mg/kg ([1]; Mus musculus, BALB/c mice, single oral dose 0.3 mg/kg, bleach 2 h after dose, read-out: Percent control at 2 Hours (Avg. % Inhibition)) of the same compound?
The activity at 0.3 mg/kg was 7.6%.

What about the activity at 0.5 mg/kg ([1]; Mus musculus, BALB/c mice, single oral dose 0.5 mg/kg, bleach 2 h after dose, read-out: Percent control at 2 Hours (Avg. % Inhibition)) of the same compound?
Its activity at 0.5 mg/kg is 0.7%.

And the activity at 1 mg/kg ([1]; Mus musculus, BALB/c mice, single oral dose 1 mg/kg, bleach 2 h after dose, read-out: Percent control at 2 Hours (Avg. % Inhibition))?
The activity at 1 mg/kg was -0.4%.

And the activity at 3 mg/kg ([1]; Mus musculus, BALB/c mice, single oral dose 3 mg/kg, bleach 2 h after dose, read-out: Percent control at 2 Hours (Avg. % Inhibition))?
Its activity at 3 mg/kg is -5.2%.

What about the “dose showing nearly 100% inhibition” value ([1]; dose response experiment, 2 h) of the same compound?
The value was 0.5 mg/kg.

And the “times more active than compound D, by dose for nearly 100% inhibition” value ([1]; dose response experiment, 2 h)?
Its value is “approximately 6 ×”.

What about the “times more active than compound D, by inhibition at a dose of 0.3 mg/kg” value ([1]; dose response experiment, 2 h) of the same compound?
Its value is “greater than 10 ×”.

And the “Percent Control, 0.3 mg/kg (average)” value ([2]; Time Point 2 Hours)?
The value was 2.0%.

And the “Percent Control, 0.3 mg/kg (average)” value ([2]; Time Point 4 Hours)?
Its value is 11.5%.

And the “Percent Control, 0.3 mg/kg (average)” value ([2]; Time Point 6 Hours)?
The value was 43.7%.

And the “Percent Control, 0.3 mg/kg (average)” value ([2]; Time Point 8 Hours)?
Its value is 79.8%.

What about the “Percent Control, 0.3 mg/kg (average)” value ([2]; Time Point 16 Hours) of the same compound?
The value was 98.5%.

And the “Percent Control, 0.3 mg/kg (average)” value ([2]; Time Point 24 Hours)?
Its value is 95.8%.

What about the inhibition at 0.3 mg/kg ([2]; Time Point 2 Hours) of the same compound?
The inhibition at 0.3 mg/kg was 98%.

And the inhibition at 0.3 mg/kg ([2]; Time Point 4 Hours)?
The inhibition at 0.3 mg/kg was 88.5%.

What about the inhibition at 0.3 mg/kg ([2]; Time Point 6 Hours) of the same compound?
Its inhibition at 0.3 mg/kg is 56.3%.

And the inhibition at 0.3 mg/kg ([2]; Time Point 8 Hours)?
The inhibition at 0.3 mg/kg was 20.2%.

What about the inhibition at 0.3 mg/kg ([2]; Time Point 16 Hours) of the same compound?
Its inhibition at 0.3 mg/kg is 1.5%.

What about the inhibition at 0.3 mg/kg ([2]; Time Point 24 Hours) of the same compound?
The inhibition at 0.3 mg/kg was 4.2%.

What about the inhibition at 0.03 mg/kg ([3]; 2 h, Dose 0.03 mg/kg) of the same compound?
Its inhibition at 0.03 mg/kg is -2.7%.

And the inhibition at 0.1 mg/kg ([3]; 2 h, Dose 0.1 mg/kg)?
Its inhibition at 0.1 mg/kg is 3.4%.

What about the inhibition at 0.3 mg/kg ([3]; 2 h) of the same compound?
Its inhibition at 0.3 mg/kg is 58.4%.

And the inhibition at 0.5 mg/kg ([3]; 2 h, Dose 0.5 mg/kg)?
Its inhibition at 0.5 mg/kg is 89.9%.

And the inhibition at 0.81 mg/kg ([3]; 2 h)?
Its inhibition at 0.81 mg/kg is 98.2%.

And the inhibition at 1 mg/kg ([3]; 2 h)?
Its inhibition at 1 mg/kg is 96.9%.

And the inhibition at 3 mg/kg ([3]; 2 h, Dose 3 mg/kg)?
Its inhibition at 3 mg/kg is 101%.

And the inhibition at 0.3 mg/kg ([3]; 4 h)?
Its inhibition at 0.3 mg/kg is 15.7%.

And the inhibition at 0.81 mg/kg ([3]; 4 h)?
The inhibition at 0.81 mg/kg was 87.9%.

What about the inhibition at 1 mg/kg ([3]; 4 h) of the same compound?
Its inhibition at 1 mg/kg is 91.1%.

And the inhibition at 0.81 mg/kg ([3]; 6 h)?
Its inhibition at 0.81 mg/kg is 75.8%.

What about the inhibition at 0.3 mg/kg ([3]; 8 h) of the same compound?
The inhibition at 0.3 mg/kg was 10.4%.

What about the inhibition at 0.81 mg/kg ([3]; 8 h) of the same compound?
Its inhibition at 0.81 mg/kg is 51.8%.

What about the inhibition at 1 mg/kg ([3]; 8 h) of the same compound?
The inhibition at 1 mg/kg was 62%.

And the inhibition at 0.3 mg/kg ([3]; 16 h)?
Its inhibition at 0.3 mg/kg is -2.7%.

And the inhibition at 0.81 mg/kg ([3]; 16 h)?
Its inhibition at 0.81 mg/kg is 5.5%.

And the inhibition at 1 mg/kg ([3]; 16 h)?
The inhibition at 1 mg/kg was -1.2%.

And the inhibition at 0.3 mg/kg ([3]; 24 h)?
Its inhibition at 0.3 mg/kg is -4.4%.

And the inhibition at 0.81 mg/kg ([3]; 24 h)?
The inhibition at 0.81 mg/kg was -4.8%.

And the inhibition at 1 mg/kg ([3]; 24 h)?
Its inhibition at 1 mg/kg is 3.8%.
